Measured values from patent publication EP4635500A1, “THERAPEUTIC AGENT FOR BACTERIAL INFECTION” (Sumitomo Pharma Co., Ltd., priority 2022, dated 2024).

Experiments:
[1] = system: Metallo-β-lactamase producing strains (N = 27); assay: MIC50/MIC90 for carbapenemase-producing isolates (Example 5, Table 6); assay type: cell-based; design: MIC50: unit not given here
P. aeruginosa = assay: MIC, broth microdilution, CDC/FDA Antibiotic Resistance Isolate Bank (Example 7, Tables 10, 15); assay type: cell-based
[2] = 26 metallo-carbapenemase-producing P. aeruginosa strains, β-lactamase inhibitor µg/mL in parentheses
[3] = 96 strains of P. aeruginosa, β-lactamase inhibitor µg/mL in parentheses

colistin
1 µg/mL: MIC90 ([1]; metallo-β-lactamase-producing strains, combination: Compound A at a fixed concentration of 4 µg/mL) | MIC (P. aeruginosa; P. aeruginosa KUB No. 579, AR Bank # 447) | MIC (P. aeruginosa; P. aeruginosa KUB No. 5083, AR Bank # 250) | MIC (P. aeruginosa; P. aeruginosa KUB No. 5561, AR Bank # 64) | MIC (P. aeruginosa; P. aeruginosa KUB No. 5587, AR Bank # 90) | MIC (P. aeruginosa; P. aeruginosa KUB No. 5589, AR Bank # 92) | MIC (P. aeruginosa; P. aeruginosa KUB No. 5591, AR Bank # 94) | MIC (P. aeruginosa; P. aeruginosa KUB No. 5592, AR Bank # 95) | MIC (P. aeruginosa; P. aeruginosa KUB No. 5597, AR Bank # 100) | MIC (P. aeruginosa; P. aeruginosa KUB No. 5600, AR Bank # 103) | MIC (P. aeruginosa; P. aeruginosa KUB No. 5602, AR Bank # 105) | MIC (P. aeruginosa; P. aeruginosa KUB No. 5605, AR Bank # 108) | MIC (P. aeruginosa; P. aeruginosa KUB No. 5607, AR Bank # 110) | MIC (P. aeruginosa; P. aeruginosa KUB No. 5608, AR Bank # 111) | MIC (P. aeruginosa; P. aeruginosa KUB No. 5662, AR Bank # 229) | MIC (P. aeruginosa; P. aeruginosa KUB No. 5663, AR Bank # 230) | MIC (P. aeruginosa; P. aeruginosa KUB No. 5664, AR Bank # 231) | MIC (P. aeruginosa; P. aeruginosa KUB No. 5665, AR Bank # 232) | MIC (P. aeruginosa; P. aeruginosa KUB No. 5666, AR Bank # 23) | MIC (P. aeruginosa; P. aeruginosa KUB No. 5667, AR Bank # 234) | MIC (P. aeruginosa; P. aeruginosa KUB No. 5669, AR Bank # 236) | MIC (P. aeruginosa; P. aeruginosa KUB No. 5671, AR Bank # 238) | MIC (P. aeruginosa; P. aeruginosa KUB No. 5672, AR Bank # 239) | MIC (P. aeruginosa; P. aeruginosa KUB No. 5673, AR Bank # 240) | MIC (P. aeruginosa; P. aeruginosa KUB No. 5674, AR Bank # 241) | MIC (P. aeruginosa; P. aeruginosa KUB No. 5676, AR Bank # 243) | MIC (P. aeruginosa; P. aeruginosa KUB No. 5677, AR Bank # 244) | MIC (P. aeruginosa; P. aeruginosa KUB No. 5678, AR Bank # 245) | MIC (P. aeruginosa; P. aeruginosa KUB No. 5681, AR Bank # 248) | MIC (P. aeruginosa; P. aeruginosa KUB No. 5685, AR Bank # 252) | MIC (P. aeruginosa; P. aeruginosa KUB No. 5686, AR Bank # 253) | MIC (P. aeruginosa; P. aeruginosa KUB No. 5687, AR Bank # 254) | MIC (P. aeruginosa; P. aeruginosa KUB No. 5688, AR Bank # 255) | MIC (P. aeruginosa; P. aeruginosa KUB No. 5690, AR Bank # 257) | MIC (P. aeruginosa; P. aeruginosa KUB No. 5692, AR Bank # 259) | MIC (P. aeruginosa; P. aeruginosa KUB No. 5693, AR Bank # 260) | MIC (P. aeruginosa; P. aeruginosa KUB No. 5694, AR Bank # 261) | MIC (P. aeruginosa; P. aeruginosa KUB No. 5695, AR Bank # 262) | MIC (P. aeruginosa; P. aeruginosa KUB No. 5697, AR Bank # 264) | MIC (P. aeruginosa; P. aeruginosa KUB No. 5698, AR Bank # 265) | MIC (P. aeruginosa; P. aeruginosa KUB No. 5699, AR Bank # 266) | MIC (P. aeruginosa; P. aeruginosa KUB No. 5700, AR Bank # 267) | MIC (P. aeruginosa; P. aeruginosa KUB No. 5701, AR Bank # 268) | MIC (P. aeruginosa; P. aeruginosa KUB No. 5702, AR Bank # 269) | MIC (P. aeruginosa; P. aeruginosa KUB No. 5703, AR Bank # 270) | MIC (P. aeruginosa; P. aeruginosa KUB No. 5704, AR Bank # 271) | MIC (P. aeruginosa; P. aeruginosa KUB No. 5705, AR Bank # 272) | MIC (P. aeruginosa; P. aeruginosa KUB No. 5747, AR Bank # 351) | MIC (P. aeruginosa; P. aeruginosa KUB No. 5750, AR Bank # 354) | MIC (P. aeruginosa; P. aeruginosa KUB No. 5751, AR Bank # 355) | MIC (P. aeruginosa; P. aeruginosa KUB No. 5753, AR Bank # 357) | MIC (P. aeruginosa; P. aeruginosa KUB No. 5754, AR Bank # 358) | MIC (P. aeruginosa; P. aeruginosa KUB No. 5755, AR Bank # 359) | MIC (P. aeruginosa; P. aeruginosa KUB No. 5756, AR Bank # 360) | MIC (P. aeruginosa; P. aeruginosa KUB No. 5786, AR Bank # 440) | MIC (P. aeruginosa; P. aeruginosa KUB No. 5788, AR Bank # 443) | MIC (P. aeruginosa; P. aeruginosa KUB No. 5789, AR Bank # 444) | MIC (P. aeruginosa; P. aeruginosa KUB No. 5790, AR Bank # 445) | MIC (P. aeruginosa; P. aeruginosa KUB No. 5793, AR Bank # 449) | MIC (P. aeruginosa; P. aeruginosa KUB No. 5799, AR Bank # 456) | MIC (P. aeruginosa; P. aeruginosa KUB No. 5804, AR Bank # 862) | MIC (P. aeruginosa; P. aeruginosa KUB No. 5805, AR Bank # 863) | MIC (P. aeruginosa; P. aeruginosa KUB No. 5806, AR Bank # 864)
0.25 µg/mL: MIC (P. aeruginosa; P. aeruginosa KUB No. 5798, AR Bank # 455)
0.0005 µg/mL: MIC (P. aeruginosa; P. aeruginosa KUB No. 5813, AR Bank # 508) | MIC (P. aeruginosa; P. aeruginosa KUB No. 5815, AR Bank # 510) | MIC (P. aeruginosa; P. aeruginosa KUB No. 5816, AR Bank # 511) | MIC (P. aeruginosa; P. aeruginosa KUB No. 5832, AR Bank # 527)
1 µg(mL): MIC against 26 metallo-carbapenemase-producing strains MIC50 (P. aeruginosa; [2]) | MIC against 26 metallo-carbapenemase-producing strains MIC80 (P. aeruginosa; [2]) | MIC against 26 metallo-carbapenemase-producing strains MIC90 (P. aeruginosa; [2]) | MIC against 96 strains of P. aeruginosa MIC50 (P. aeruginosa; [3]) | MIC against 96 strains of P. aeruginosa MIC80 (P. aeruginosa; [3]) | MIC against 96 strains of P. aeruginosa MIC90 (P. aeruginosa; [3])
0.001 µg/mL: MIC (P. aeruginosa; P. aeruginosa KUB No. 5814, AR Bank # 509) | MIC (P. aeruginosa; P. aeruginosa KUB No. 5817, AR Bank # 512) | MIC (P. aeruginosa; P. aeruginosa KUB No. 5818, AR Bank # 513) | MIC (P. aeruginosa; P. aeruginosa KUB No. 5819, AR Bank # 514) | MIC (P. aeruginosa; P. aeruginosa KUB No. 5820, AR Bank # 515) | MIC (P. aeruginosa; P. aeruginosa KUB No. 5821, AR Bank # 516) | MIC (P. aeruginosa; P. aeruginosa KUB No. 5823, AR Bank # 518) | MIC (P. aeruginosa; P. aeruginosa KUB No. 5831, AR Bank # 526) | MIC (P. aeruginosa; P. aeruginosa KUB No. 5833, AR Bank # 528) | MIC (P. aeruginosa; P. aeruginosa KUB No. 5834, AR Bank # 529)
0.25: MIC50 ([1]; Metallo-β-lactamase (N = 27): IMP-1 (12), IMP-6 (3), IMP-34 (1), NDM-1 (8), NDM-6 (1), VIM-1 (2))
0.5 µg/mL: MIC (P. aeruginosa; P. aeruginosa KUB No. 5668, AR Bank # 235) | MIC (P. aeruginosa; P. aeruginosa KUB No. 5670, AR Bank # 237) | MIC (P. aeruginosa; P. aeruginosa KUB No. 5675, AR Bank # 242) | MIC (P. aeruginosa; P. aeruginosa KUB No. 5679, AR Bank # 246) | MIC (P. aeruginosa; P. aeruginosa KUB No. 5680, AR Bank # 247) | MIC (P. aeruginosa; P. aeruginosa KUB No. 5682, AR Bank # 249) | MIC (P. aeruginosa; P. aeruginosa KUB No. 5684, AR Bank # 251) | MIC (P. aeruginosa; P. aeruginosa KUB No. 5689, AR Bank # 256) | MIC (P. aeruginosa; P. aeruginosa KUB No. 5691, AR Bank # 258) | MIC (P. aeruginosa; P. aeruginosa KUB No. 5696, AR Bank # 263) | MIC (P. aeruginosa; P. aeruginosa KUB No. 5748, AR Bank # 352) | MIC (P. aeruginosa; P. aeruginosa KUB No. 5749, AR Bank # 353) | MIC (P. aeruginosa; P. aeruginosa KUB No. 5752, AR Bank # 356) | MIC (P. aeruginosa; P. aeruginosa KUB No. 5785, AR Bank # 439) | MIC (P. aeruginosa; P. aeruginosa KUB No. 5787, AR Bank # 441) | MIC (P. aeruginosa; P. aeruginosa KUB No. 5800, AR Bank # 457) | MIC (P. aeruginosa; P. aeruginosa KUB No. 5801, AR Bank # 458) | MIC (P. aeruginosa; P. aeruginosa KUB No. 5802, AR Bank # 459)
0.5 - 2 µg(mL): MIC against 26 metallo-carbapenemase-producing strains MICrange (P. aeruginosa; [2])
2 µg/mL: MIC (P. aeruginosa; P. aeruginosa KUB No. 5551, AR Bank # 54)
0.25 - 2 µg(mL): MIC against 96 strains of P. aeruginosa MICrange (P. aeruginosa; [3])
